In patent US12516286B2, “Method for producing dopaminergic neuron progenitor cell” (KYOTO UNIVERSITY, priority 2016, dated 2026):

Experiments:
QHJ-I01 human iPS cell = test: Corin-positive ratio by flow cytometry with anti-Corin antibody on Day 12 after preconditioning of iPS cells in medium for maintaining undifferentiated state; type: cell-based; settings: for Corin-positive ratio as compared with the control: summary of Table 1
Experimental: QHJ-I01, which is a human iPS cell, has been produced by introducing of Oct3/4, Sox2, KIf4, L-MYC, LIN28, and a dominant-negative form of p53 (Okita, K., et al., Stem Cells, 31, 458-66 (2013); WO2013/176233) into human PBMC by an episomal vector. The cells were received from Professor Yamanaka of Kyoto University, et al.
The iPS cells were cultured according to the method described by Miyazaki T, et al., Nat Commun. 3: 1236, 2012. Specifically, maintenance culture was performed in a medium for maintaining undifferentiated state containing FGF2 (bFGF) on a 6-well plate coated with Laminin-511 E8.
24 hours before the start of differentiation induction by exchange with a differentiation medium, the medium was exchanged with StemFit AK03N (Ajinomoto Healthy Supply Co., Inc.), which was a medium for maintaining undifferentiated state containing SAG (Enzo Life Sciences, Inc., 300 nM), an SHH signal stimulant, to obtain a cell population comprising iPS cells.
The cell population comprising iPS cells after culturing for 24 hours in the presence of SAG as described above was dissociated using TrypLE CTS (Life Technologies), and the cells were inoculated on a 6-well plate coated with Laminin-511 E8 (iMatrix-511, Nippi, Inc.) prepared separately, in an amount of 5×10^6 cells per well. The medium was replaced with a differentiation medium [a basal medium A [GMEM (Invitrogen) supplemented with 8% KSR (Invitrogen), 1 mM Sodium pyruvate (Invitrogen), 0.1 mM MEM nonessential amino acid (Invitrogen), and 0.1 mM 2-Mercaptoethanol (WAKO)] containing 10 μM Y-27632 (WAKO), 0.1 μM LDN 193189 (Stemgent, Inc.), and 0.5 μM A83-01 (WAKO)]. On the next day (Day 1), the medium was replaced with Basal Medium A supplemented with 0.1 μM LDN193189, 0.5 μM A83-01, 2 μM Purmorphamine (WAKO), and 100 ng/mL FGF8 (WAKO). Two days later (Day 3), the medium was replaced with Basal Medium A supplemented with 0.1 μM LDN193189, 0.5 μM A83-01, 2 μM Purmorphamine, 100 ng/mL FGF8, and 3 μM CHIR99021 (WAKO). Four days later (Day 7), the medium was replaced with Basal Medium A supplemented with 0.1 μM LDN193189 and 3 μM CHIR99021. During the above period, the medium was replaced once a day. A flow cytometry analysis using an anti-Corin antibody was performed on the 12th day of the start of differentiation induction (Day 12) (FIG. 1).
An anti-Corin antibody was prepared by the following method. First, from the Corin gene of Macaca fascicularis, a gene sequence encoding a part of the extracellular domain (79th-453rd amino acids) was introduced into 293E cells, and the cells were then allowed to express the extracellular-domain fragment of Corin protein, followed by collecting the protein. Mice were immunized with the recovered protein, and lymphocytes were then extracted and fused with myeloma cells. From the cell population after the fusion, a clone having reactivity with Corin was selected. The culture supernatant of the clone was used after attaching a fluorescent label as the anti-Corin monoclonal antibody.
Five days after the culture in Basal Medium A supplemented with 0.1 μM of LDN193189 and 3 μM CHIR99021, namely on the 12th day of the start of differentiation induction (Day 12), the cells were dissociated using TrypLE CTS, and suspended in Ca^2+Mg^2+-free HBSS (Invitrogen) supplemented with 2% FBS, 10 μM Y-27632 (WAKO), 20 mM D-glucose, and 50 μg/mL penicillin/streptomycin. The anti-Corin antibody was added to the suspension, and the resulting mixture was incubated at 4° C. for 20 minutes, the cells were sorted using FACS (BD) to collect Corin-positive cells, and the cell number was counted.
Similar to Example 1, experiments in which the concentration of SAG added was changed, and experiments in which A83-01 or LDN 193189 was added at the same time with SAG, were conducted, and the Corin-positive ratio were measured.

[1] = tested on: model rat of Parkinson's disease (6-OHDA uni-laterally administered rat); test: Cell transplantation into striatum of Parkinson's disease model rat, graft staining with TH and HuNu after 4 weeks; type: in vivo; settings: for TH-ratio with respect to HuNu-positive cells as 100%: graft of cells cultured in the presence of SAG (300 nM)
Experimental: In this case, the medium was replaced in half every 3 days.
A plurality of cell aggregates containing 4×10^5 cells obtained as described above were suspended in 2 μL of physiological saline, and injected into the striatum of a model rat of Parkinson's disease (6-OHDA uni-laterally administered rat) using a 22 gauge injection needle, and the appearance of the graft after 4 weeks was observed (FIG. 5).

LPF 11 human iPS cell = test: Corin-positive ratio on Day 12, iPS cells generated by another method; type: cell-based; settings: SAG 300 nM preconditioning vs absence of SAG, FIG. 4
Source text: LPF 11, a human iPS cell, has been established by introducing Oct3/4, Sox2, KIf4, and L-MYC into human PBMC by a Sendai virus vector (Cytotune 2.0 L, produced by ID Pharma Co., Ltd.), and culturing the same by the method according to the protocol published by Kyoto University (Establishment, maintenance culture of human iPS cells; CiRA Ff-iPSC_protocol_JP_v140310, //www.cira.kyoto-u.ac.jp/j/research/protocol.html) using StemFit medium (produced by Ajinomoto Healthy Supply Co., Inc. Inc.), and Laminin-511 E8 (produced by Nippi, Inc.).
Using this iPS cell, culturing and differentiation induction were carried out in the same manner as in Example 1 and the percentage of the number of Corin-positive cells with respect to the total cell number was measured on the 12th day (Day 12) using an anti-Corin antibody.

SMILES | Corin-Positive Rate (%) (QHJ-I01 human iPS cell; A83-01 (500 nM) alone) | Corin-positive ratio as compared with the control (QHJ-I01 human iPS cell) | Corin-Positive Rate (%) (QHJ-I01 human iPS cell; LDN193189 (100 nM) alone) | ratio of the number of TH-positive cells to the number of HuNu-positive cells, SAG-treated cell graft vs non-treated cell graft ([1]; 4 weeks after grafting) | TH-ratio with respect to HuNu-positive cells as 100% ([1]; 4 weeks) [%] | TH-ratio with respect to HuNu-positive cells as 100% ([1]; 4 weeks after grafting, average) [%] | TH-ratio with respect to HuNu-positive cells as 100% ([1]; 4 weeks, individual (2)) [%] | percentage of Corin-positive cells (QHJ-I01 human iPS cell; SAG 300 nM for 24 hours before differentiation induction vs absence of SAG, FIG. 2) | Corin-Positive Rate (%) (QHJ-I01 human iPS cell; SAG (10 nM) added to medium for maintaining undifferentiated state before differentiation induction) | Corin-Positive Rate (%) (QHJ-I01 human iPS cell; SAG (300 nM)) | percentage of Corin-positive cells (LPF 11 human iPS cell)
Cc1cccc(-c2nn(C(=S)Nc3ccccc3)cc2-c2ccnc3ccccc23)n1 [A83-01, 3-(6-methyl-2-pyridinyl)-N-phenyl-4-(4-quinolinyl)-1H-pyrazole-1-carbothioamide] | 12.4 | no effect |  |  |  |  |  |  |  |  | 
c1ccc2c(-c3cnn4cc(-c5ccc(N6CCNCC6)cc5)cnc34)ccnc2c1 [LDN193189] |  | no effect | 12.6 |  |  |  |  |  |  |  | 
CNC1CCC(N(Cc2cccc(-c3ccncc3)c2)C(=O)c2sc3ccccc3c2Cl)CC1 (stereo not shown) [SAG] |  | improves depending on the concentration of SAG added |  | no difference | 6.1 | 9.24 | 12.37 | increased | 22.7 | 32.1 | increased
